In PMC11992225, “Antibacterial compounds against non-growing and intracellular bacteria” (npj Antimicrobials and Resistance, 2025):
In brackets after ≈: the same amount, converted by molar mass. Read-outs that look alike come from different tables or passages of the source.

Tests used:
E. coli CFT073 (UPEC) = assay: MIC, standard microdilution assay, growing UPEC; assay type: cell-based, Escherichia coli
Summary of the method: (§1)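 Each strain was exposed to serially diluted compound in broth, in triplicate. The media were TSB for Shigella; CA-MHB at pH 7.4 (HEPES 40 mM) for S. aureus, P. aeruginosa and UPEC; and, for UPEC only, low-pH LPM (pH 5.5, 30 mM MES).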

P. aeruginosa DSM1117 = assay: MIC, standard microdilution assay, growing P. aeruginosa; assay type: cell-based, Pseudomonas aeruginosa; settings: P. aeruginosa
Summary of the method: as §1

S. aureus DSM2569 = assay: MIC, standard microdilution assay, growing S. aureus; assay type: cell-based, Staphylococcus aureus; settings: S. aureus, CA-MHB pH 7.4, read-out: MIC (μM) CA-MHB
Summary of the method: as §1

S. flexneri 5a M90T = assay: MIC in tryptic soy broth, S. flexneri; assay type: cell-based, Shigella flexneri; settings: for MIC: Shigella flexneri, 5AM90T, read-out: MIC (μM) TSB
Summary of the method: as §1

non-growing UPEC CFT073 = assay: Dilution-regrowth assay (screen, hit validation, dose-response) on stationary-phase UPEC; assay type: cell-based, Escherichia coli; settings: for EC50: E. coli, regrowth delay of non-growing bacteria, 24 h treatment, OD600 6 h after 2500-fold dilution, read-out: EC50
Summary of the method: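 Regrowth (OD600 after 6 h, 37 °C) of diluted non-growing CFT073, following 24 h compound treatment of 24 h stationary cultures, defines activity relative to untreated control. Screen at 20 µM, validation at 20, 10, 5 µM (duplicates), dose–response in three biological replicates fitted by five-parameter logistic.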

[1] = tested on: intracellular S. flexneri 5a M90T in TC7 cells; assay: microbe, parasite or virus in culture; assay type: cell-based, Shigella flexneri; settings: for IC50: Shigella flexneri, TC7, 14 h
Source text: Nonproliferating bacterial pathogens frequently inhabit intracellular environments, but establishing relevant infection models for high-throughput testing is challenging. Therefore, we firstly tested ability of the hit compounds to cross the eukaryotic cytoplasmic membrane barrier and inhibit growth of S. flexneri within the cytoplasm of the TC7 human colon adenocarcinoma cell line[59]. To this end, we developed a new, fluorescence-based method that enables real-time monitoring of growth of intracellular Shigella. We used S. flexneri 5a M90T strain producing the AfaE adhesin that enhances bacterial adhesion to epithelial cells and allows synchronization of invasion. The strain was further modified to constitutively express super-folder GFP (sfGFP), which enables monitoring bacterial growth by fluorescence measurement. The epithelial cells were grown to confluence and infected with bacteria at an MOI (multiplicity of infection) of 50. […] Following bacterial adhesion and invasion, the cells were incubated with varying concentrations of the hit compounds and intracellular bacterial growth was tracked by measuring green fluorescence.
The cells were split using trypsin, seeded in 96-well plates for infection, and grown to confluence, corresponding to approximately 40,000 cells per well.
A single colony of S. flexneri was inoculated into TSB supplemented with 50 μg/ml spectinomycin and incubated overnight at 37°C with agitation. The overnight culture was diluted 1:200 in fresh TSB, and the bacteria were grown at 37 °C until the OD600 reached 0.3–0.4, corresponding to approximately 2 × 10^7 CFU/ml. Bacteria were pelleted by centrifugation, washed twice with sterile PBS, and resuspended in infection solution (serum-free DMEM supplemented with 20 mM HEPES, pH 7.4). Just prior to infection, the medium was withdrawn, and the cells were washed twice with sterile PBS. The bacterial inoculum (MOI 50, 2 × 10^7 CFU/ml) was added to all wells except the no-infection control. The plates were incubated at room temperature for 15 min to allow bacterial adhesion, followed by a 1 h incubation at 37 °C with 5% CO2 to facilitate bacterial invasion.
Twofold serial dilutions of the drugs were prepared in infection solution containing 50 μg/ml gentamicin in a 96-well plate. After the invasion period, the bacterial inoculum was removed, and the serial dilutions of the drugs were added to the wells, except for the no-drug control. […] […] The experiments were performed in triplicates on separate days.
Statistical significance of the drug effects was assessed using a one-way ANOVA followed by Dunnett’s test, comparing each treatment to the drug-free control. Statistical significance of the differences in chemical characteristics between the hit compounds and the Prestwick library was assessed using a Mann–Whitney test. Statistical significance was set at P ≤ 0.05. A five-parameter logistic equation was used for asymmetric sigmoidal curve fitting and for EC50 and IC50 determination. The Venn diagram in Fig. 1F was prepared using BioVenn web application. Characteristics of the chemical and physical properties of Prestwick library compounds were obtained from Supplementary Table S1 from reference. Characteristics of the hit compounds not included in the Prestwick library were retrieved from the PubChem database.

[2] = TC7 cells infected with GFP-expressing S. flexneri, 14 h treatment
[3] = Escherichia coli, E. coli, pH 7.4, CA-MHB, read-out: MIC (μM) CA-MHB
[4] = Pseudomonas aeruginosa, DSM1117, 1:4 diluted CA-MHB pH 7.4, read-out: MIC (μM) 1:4 CA-MHB
[5] = Pseudomonas aeruginosa, DSM1117, CA-MHB pH 7.4, read-out: MIC (μM) CA-MHB
[6] = Escherichia coli, pH 7.4, 1:4 CA-MHB

SMILES: CC(=O)[O][Pt]([NH2])([Cl])([Cl])([NH]C1CCCCC1)[O]C(C)=O [Satraplatin]
- MIC (E. coli CFT073 (UPEC); E. coli, LPM pH 5.5, read-out: MIC): 32 µM
- MIC (E. coli CFT073 (UPEC); E. coli, pH 7.4, CA-MHB, read-out: MIC (μM) CA-MHB): >160 µM
- MIC (P. aeruginosa DSM1117; CA-MHB pH 7.4, read-out: MIC (μM) CA-MHB): 160 µM
- MIC (S. aureus DSM2569): 80 µM
- MIC (μM) TSB (S. flexneri 5a M90T; S. flexneri, extracellular bacteria in TSB): 128 µM
- Regrowth, OD600 at 6h or 8h after dilution into drug-free medium (average) (non-growing UPEC CFT073; E. coli in 1:4 CA-MHB (pH 7.4), drug concentration 0.25): 0.615
- Regrowth, OD600 at 6h or 8h after dilution into drug-free medium (average) (non-growing UPEC CFT073; E. coli in 1:4 CA-MHB (pH 7.4), drug concentration 0.5): 0.612
- Regrowth, OD600 at 6h or 8h after dilution into drug-free medium (average) (non-growing UPEC CFT073; E. coli in 1:4 CA-MHB (pH 7.4), drug concentration 1): 0.620
- Regrowth, OD600 at 6h or 8h after dilution into drug-free medium (average) (non-growing UPEC CFT073; E. coli in 1:4 CA-MHB (pH 7.4), drug concentration 2.5): 0.601
- Regrowth, OD600 at 6h or 8h after dilution into drug-free medium (average) (non-growing UPEC CFT073; E. coli in 1:4 CA-MHB (pH 7.4), drug concentration 5): 0.592
- Regrowth, OD600 at 6h or 8h after dilution into drug-free medium (average) (non-growing UPEC CFT073; E. coli in 1:4 CA-MHB (pH 7.4), drug concentration 10): 0.597
- Regrowth, OD600 at 6h or 8h after dilution into drug-free medium (average) (non-growing UPEC CFT073; E. coli in 1:4 CA-MHB (pH 7.4), drug concentration 30): 0.570
- Regrowth, OD600 at 6h or 8h after dilution into drug-free medium (average) (non-growing UPEC CFT073; E. coli in LPM (pH 5.5), drug concentration 0.25): 0.566
- Regrowth, OD600 at 6h or 8h after dilution into drug-free medium (average) (non-growing UPEC CFT073; E. coli in LPM (pH 5.5), drug concentration 0.5): 0.557
- Regrowth, OD600 at 6h or 8h after dilution into drug-free medium (average) (non-growing UPEC CFT073; E. coli in LPM (pH 5.5), drug concentration 1): 0.558
- Regrowth, OD600 at 6h or 8h after dilution into drug-free medium (average) (non-growing UPEC CFT073; E. coli in LPM (pH 5.5), drug concentration 2.5): 0.474
- Regrowth, OD600 at 6h or 8h after dilution into drug-free medium (average) (non-growing UPEC CFT073; E. coli in LPM (pH 5.5), drug concentration 5): 0.354
- Regrowth, OD600 at 6h or 8h after dilution into drug-free medium (average) (non-growing UPEC CFT073; E. coli in LPM (pH 5.5), drug concentration 10): 0.251
- Regrowth, OD600 at 6h or 8h after dilution into drug-free medium (average) (non-growing UPEC CFT073; E. coli in LPM (pH 5.5), drug concentration 30): 0.087
- EC50 (non-growing UPEC CFT073; LPM pH 5.5): 7.62 µM
- activity against non-growing UPEC in LPM (pH 5.5) compared to 1:4 CA-MHB (pH 7.4) (non-growing UPEC CFT073; regrowth delay and killing, Figs. 2 and 3): potentiated by the low pH
- Fluorescence intensity (RFU), Mean, 0.0625 x MIC ([1]; TC7 cells infected with GFP-expressing S. flexneri, 14 h treatment, 0.0625 x MIC): 9460.97 RFU
- Fluorescence intensity (RFU), Mean, 0.125 x MIC [1, 2]: 9284.03 RFU
- Fluorescence intensity (RFU), Mean, 0.25 x MIC [1, 2]: 8685.25 RFU
- Fluorescence intensity (RFU), Mean, 0.5 x MIC [1, 2]: 7328.94 RFU
- Fluorescence intensity (RFU), Mean, 2 x MIC [1, 2]: 2689 RFU
- Fluorescence intensity (RFU), Mean, MIC [1, 2]: 4882 RFU

SMILES: C[C@@H]1CN(c2c(F)c(N)c3c(=O)c(C(=O)O)cn(C4CC4)c3c2F)C[C@H](C)N1 [Sparfloxacin]
- MIC (E. coli CFT073 (UPEC); [3]): 0.025 µM (≈ 0.00981 µg/mL)
- MIC (P. aeruginosa DSM1117; [4]): 2 µM (≈ 0.785 µg/mL)
- MIC (P. aeruginosa DSM1117; [5]): 2 µM (≈ 0.785 µg/mL)
- MIC (S. aureus DSM2569; Staphylococcus aureus, DSM2569): 0.25 µM (≈ 0.0981 µg/mL)
- MIC (S. flexneri 5a M90T): 0.0312 µM (≈ 0.0123 µg/mL)
- EC50 (non-growing UPEC CFT073; [6]): 6.33 µM
- MIC:IC50 ratio ([1]; S. flexneri MIC in TSB versus intracellular IC50): > 2
- IC50 [1]: 0.012 µM
- Fluorescence intensity (RFU), Mean, 0.25 x MIC [1, 2]: 5576.79 RFU
- Fluorescence intensity (RFU), Mean, 0.5 x MIC [1, 2]: 4270.29 RFU
- Fluorescence intensity (RFU), Mean, 2 x MIC [1, 2]: 2726.47 RFU
- Fluorescence intensity (RFU), Mean, 4 x MIC [1, 2]: 2375.69 RFU
- Fluorescence intensity (RFU), Mean, 8 x MIC [1, 2]: 1916.33 RFU
- Fluorescence intensity (RFU), Mean, 16 x MIC [1, 2]: 1615.39 RFU
- Fluorescence intensity (RFU), Mean, 32 x MIC [1, 2]: 1554.53 RFU
- Fluorescence intensity (RFU), Mean, MIC [1, 2]: 2934.67 RFU

SMILES: N[C@@H]1[C@H]2CN(c3nc4c(cc3F)c(=O)c(C(=O)O)cn4-c3ccc(F)cc3F)C[C@@H]12 [Trovafloxacin]
- MIC (E. coli CFT073 (UPEC); Escherichia coli, pH 5.5): 0.0625 µM (≈ 0.026 µg/mL)
- MIC (E. coli CFT073 (UPEC); [3]): 0.4 µM (≈ 0.167 µg/mL)
- increase of MIC in diluted CA-MHB versus CA-MHB (P. aeruginosa DSM1117): four
- MIC (P. aeruginosa DSM1117; [4]): 8 µM (≈ 3.33 µg/mL)
- MIC (P. aeruginosa DSM1117; [5]): 2 µM (≈ 0.833 µg/mL)
- MIC (S. aureus DSM2569; Staphylococcus aureus, DSM2569): 0.125 µM (≈ 0.052 µg/mL)
- MIC (S. flexneri 5a M90T): 0.0625 µM (≈ 0.026 µg/mL)
- EC50 (non-growing UPEC CFT073; Escherichia coli, LPM pH 5.5): 5.18 µM
- EC50 (non-growing UPEC CFT073; [6]): 1.25 µM
- IC50 [1]: 0.037 µM
- Fluorescence intensity (RFU), Mean, 0.125 x MIC [1, 2]: 8837.54 RFU
- Fluorescence intensity (RFU), Mean, 0.25 x MIC [1, 2]: 8024.79 RFU
- Fluorescence intensity (RFU), Mean, 0.5 x MIC [1, 2]: 6129.12 RFU
- Fluorescence intensity (RFU), Mean, 2 x MIC [1, 2]: 2933.5 RFU
- Fluorescence intensity (RFU), Mean, 4 x MIC [1, 2]: 2559.17 RFU
- Fluorescence intensity (RFU), Mean, 8 x MIC [1, 2]: 2016.56 RFU
- Fluorescence intensity (RFU), Mean, 16 x MIC [1, 2]: 1696.44 RFU
- Fluorescence intensity (RFU), Mean, 32 x MIC [1, 2]: 1579.94 RFU
- Fluorescence intensity (RFU), Mean, MIC [1, 2]: 3277.92 RFU
